A short description of data set [1]: Serum metabolism of peptides in rat serum. In kind it is in vitro ADME. Particulars: for half-life at 500 µg/mL: male, Sprague Dawley, rat, serum. The protocol:
Four month old male Sprague Dawley rats were used as the blood source for the metabolism studies. Blood was collected from left/right jugular veins of the rats using sterile catheters. After a 30 minute incubation on ice, the blood was centrifuged at 1000 rpm for 15 min to separate the serum. Serum was then transferred to clean tubes and stored at −20° C. until use.
Except for dihexa all drug solutions were prepared in HPLC grade water at 5 mg/ml. Stock drugs were kept in powder form and stored at −20° C. Serum metabolism experimental procedure and analysis. Rat blood serum samples were pre-equilibrated at 37° C. and then 10 μL (50 μg) of each drug solution was added to 90 μL of rat serum in 1.5 mL Eppendorf tube maintained at 37° C. At specified time intervals, metabolism was terminated by precipitating proteins with the addition of 1 ml of a solution of acetonitrile (ACN) and acetic acid (9:1, v/v). The terminated reaction mixture was stored in refrigerator (5° C.) overnight and centrifuged (14,000 rpm) for 30 min to remove precipitated proteins. The separated supernatant was dried in vacuum concentrator. The dried samples were reconstituted using 200 μL HPLC mobile phase (10% v/v ACN in water), vortexed briefly, and subjected to HPLC separation and analysis. A serum blank experiment to detect any interfering peaks in the HPLC chromatogram was performed by in an identical manner except that no drug was added. Zero time values for each drug candidate were established by first treating the serum with ACN, processing the sample as described above, adding drug, and then performing HPLC analysis.
The degradation rate of drug was determined by measuring the decrease in area under curve (AUC) at the retention time of drug over time. The AUC obtained from the zero time experiment was considered to represent the “100%” drug concentration and was used to determine the decreased drug concentration at each specified time interval. The semi-logarithmic plot of drug concentration vs. time was generated to determine degradation kinetic constant (k) of the tested drug. The half-life of drug was (t1/2) was calculated by 0.693/k.
Analysis of samples was performed using an HPLC system. The system consisted of a communications bus module, pumps, and a photodiode array detector. Separation was achieved using a C18 (250 mm×4.6 mm id., 5 μm particle size) reverse phase column. The column temperature was set at 40° C. The mobile phase consisted of a mixture of ACN and water with 0.1% TFA and was degassed by ultrasonication. Samples were introduced by manual mode with an injection volume of 250 μL. The drug was eluted with a flow rate of 1 mL/min and detected by PDA detector at […] wavelengths of 215 and 280 nm.

In data set [2] the test system is scopolamine treated rats. Nature of the data set: Morris water maze, scopolamine amnesia model. In kind it is in vivo, rat. Particulars: for mean latency to find the pedestal: icv, Dihexa, Hinge 300 pmol, scopolamine 70 nmol. On the procedure:
Swim speed was determined from these values.

Data set [3] has as its system hippocampal neurons. The experiment in a line: Dendritic spine counts (spinogenesis) in mRFP-β-actin transfected dissociated hippocampal neurons. In kind it is cell-based, rat. Conditions: dose-response; 10^-8 and 10^-10 M. The protocol:
Hippocampal neurons (2×10^5 cells per square cm) were cultured from P1 Sprague Dawley rats on plates coated with poly-L-lysine from Sigma (St. Louis, Mo.; molecular weight 300,000). […] Each experiment was repeated at least three times using independent culture preparations. […] Hippocampal neurons (2×10^5 cells per square centimeter) were cultured from P1-2 Sprague Dawley rats on plates coated with poly-L-lysine from Sigma (St. Louis, Mo.; molecular weight 300,000). Hippocampal neurons were maintained in Neurobasal A media from Invitrogen (Carlsbad, Calif.) supplemented with B27 from Invitrogen, 0.5 mM L-glutamine, and […] cytosine-D-arabinofuranoside from Sigma added at 2 days in vitro. Hippocampal neurons were then cultured a further 3-7 days, at which time they were either transfected or treated with various pharmacological reagents as described in the text or figure legends. Neurons were transfected with mRFP-β-actin on day in vitro 6 […] using LipofectAMINETM 2000 (Invitrogen) according to the manufacturer's protocol. […] On DIV7 the cells were treated with vehicle (H20) or peptides (as described in the text) added to media. […] Five 50 μm long segments of dendrite from at least 10 neurons per data point were analyzed for each data point reported. Each experiment was repeated at least three times using independent culture preparations. […] A target sequence for c-Met was designed using RNAi central design program (see the website located at […].edu/). The target sequence […] NO: 2) was inserted into pSUPER vector (Oligoengine, Seattle Wash.) which drives endogenous production of shRNA under the H1 promoter. The shRNA was transfected into cells using the lipofectamine method described above. Verification of receptor knockdown was done by creating a c-[…]-Myc tagged gene product using the Gateway cloning system (Invitrogen). The Met protein coding sequence was cloned from rat whole brain cDNA using primers obtained from Integrated DNA Technologies, Inc. The amplified product was gel purified and a band corresponding to 190 kDa band excised and cloned into a […] destination vector (Gateway). Hippocampal neurons (2×10^5 cells per square cm) were cultured from P1 Sprague Dawley rats on plates coated with poly-L-lysine from Sigma (St. Louis, Mo.; molecular weight […]).

The mark [4] stands for this setting: rat serum, 37° C., Mean +/− SD, N = 3, read-out: Half-Life (min), serum stability.

Each structure is given as a SMILES string. Entries after “also recorded” stand apart in the source; their conditions may differ. Structures can show the parent of a compound that is named as a salt. Where two headings read alike, the source gives them in different places. Where a SMILES comes first, the peptide text is derived from it. [ ]: non-standard residue; d: D form. dNle = CCCC[C@@H](N)C(=O)O; Nle = CCCC[C@H](N)C(=O)O; GABA = NCCCC(=O)O

`CCCC[C@H](N)C(=O)N[C@@H](Cc1ccc(O)cc1)C(=O)N[C@H](C(=O)N[C@@H](Cc1cnc[nH]1)C(=O)N1CCC[C@H]1C(=O)N[C@@H](Cc1ccccc1)C(=O)O)[C@@H](C)CC` [Nle1-AngIV, Norleucine-YIHPF, reference compound] (H-[Nle]YIHPF-OH): the half-life at 500 µg/mL in data set [1] (setting [4]) came out at 1.42 min; in data set [1] (read-out: t1/2 in rat serum) it was 1.4 min. Moreover, in data set [1] (rat serum, 37° C., Mean +/− SD, N = 3), the “Half-Life (min), serum stability” value is given as “less than two minutes”.

As for `CN1[C@@H]2C[C@@H](OC(=O)[C@H](CO)c3ccccc3)C[C@H]1[C@@H]1O[C@@H]12` [scopolamine, Scopolamine hydrobromide, reference compound], the results for the “mean latency to find the pedestal” value in data set [2] (day one of training), in data set [2] (final day of training (day 8)) and in data set [2] (fourth day of training) were 114.7 s, 84.8 s and 102.4 s, respectively.

`CCCC[C@H](N)C(=O)N[C@@H](Cc1ccc(O)cc1)C(=O)N[C@H](C(=O)N[C@@H](Cc1c[nH]cn1)C(N)=O)[C@@H](C)CC` [Nle-Tyr-Ile-His-NH2] (H-[Nle]YIH-NH2): in data set [1] (setting [4]), the half-life at 500 µg/mL amounted to 23 min.

`CCCC[C@@H](N)C(=O)N[C@@H](Cc1ccc(O)cc1)C(=O)N[C@H](C(=O)O)[C@@H](C)CC` [D-Nle-Tyr-Ile] (H-[dNle]-Tyr-Ile-OH): the half-life at 500 µg/mL in data set [1] (setting [4]) stood at 225 min.

`CCCC[C@H](NC(C)=O)C(=O)N[C@@H](Cc1ccc(O)cc1)C(=O)N[C@H](C(=O)N[C@@H](Cc1c[nH]cn1)C(=O)O)[C@@H](C)CC` [N-acetyl-Nle-Tyr-Ile-His] (Ac-[Nle]YIH-OH): the half-life at 500 µg/mL in data set [1] (setting [4]) worked out at 115 min.

Regarding `CC[C@H](C)[C@H](NC(=O)[C@H](Cc1ccc(O)cc1)NC(=O)CCCN)C(=O)O` [GABA-Tyr-Ile] (H-[GABA]-Tyr-Ile-OH; N-terminus and C-terminus assumed), the “spine numbers, stabilized AngIV analogs (FIG. 31)” value in data set [3] is reported as “did not appear to be the most potent generator of new dendritic spines”. In addition, the “time spent in the target quadrant, day 9 probe trial” value is “different than all the other treated groups” in data set [2] (scopolamine icv 70 nmol, analog icv 1 nmol) and “superior to all the other compound treated groups” in data set [2] (scopolamine icv 70 nmol, analog icv 1 nmol, listed as GABA-Tyr). In addition, the “latency to find the submerged platform in the Morris water maze” value in data set [2] (scopolamine icv 70 nmol, analog icv 1 nmol, 8 days) is reported as “exhibited the best performance among the compound treated groups; also recorded: not significantly different than the vehicle control group”. Further, the half-life at 500 µg/mL in data set [1] (setting [4]) came to 946 min.

Values taken from patent US9051351B2, “Hepatocyte growth factor mimics as therapeutic agents” (Washington State University, priority 2011, dated 2015).
